In PMC4010497, “Synthesis and Evaluation of Fluorine-Substituted Phenyl Acetate Derivatives as Ultra-Short Recovery Sedative/Hypnotic Agents” (PLoS ONE, 2014):
Like-named read-outs stand apart in the source and are kept apart here.

Columns and labels:
rabbits [1] = assay: Hypnosis in response to IV infusion in rabbits; format: in vivo, rabbit; conditions: for time to walk after infusion: 20-min IV infusion; for duration of LORR after cessation of infusion: 20-min IV infusion at half the HD50 per min after 2× HD50 induction
Method: Induction of hypnosis in rabbits was achieved using 2× HD50 dose of test compound, and immediately after induction, infusion via the tail vein was commenced at half the HD50 dosage per min. the infusion rate was maintained for 20 min or 1 h or 3 h later. The depth of hypnosis was monitored by the magnitude of a withdrawal reflex to intermittent paw pinch provided by a pair of forceps.

[2] = molecular target: T1, human GABAA receptor α1, β2 and γ2 (CHO-K1 cells) (Homo sapiens, UniProt P14867+P18507+P47870); assay: cell-based; conditions: GABAA (α1β2γ2) CHO-K1 cell, patch clamp; read-out: EC50, potentiation of EC20 muscimol evoked chloride currents
T1 construct: expressed in transfected cells; host or cells: CHO-K1 cells, stably transfected
T1 sequence (P14867 28-456): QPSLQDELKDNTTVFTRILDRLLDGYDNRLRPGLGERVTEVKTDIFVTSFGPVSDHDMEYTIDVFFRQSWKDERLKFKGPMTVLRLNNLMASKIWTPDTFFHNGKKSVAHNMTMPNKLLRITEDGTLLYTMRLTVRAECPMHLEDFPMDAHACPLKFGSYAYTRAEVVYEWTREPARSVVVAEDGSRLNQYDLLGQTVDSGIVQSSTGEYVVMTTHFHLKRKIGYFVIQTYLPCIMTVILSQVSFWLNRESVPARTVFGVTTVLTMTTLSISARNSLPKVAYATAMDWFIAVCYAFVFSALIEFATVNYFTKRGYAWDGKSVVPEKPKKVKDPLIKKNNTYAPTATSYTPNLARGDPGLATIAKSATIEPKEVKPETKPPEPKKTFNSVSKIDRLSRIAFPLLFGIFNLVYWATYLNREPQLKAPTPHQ
T1 sequence (P47870 25-512 limits assumed): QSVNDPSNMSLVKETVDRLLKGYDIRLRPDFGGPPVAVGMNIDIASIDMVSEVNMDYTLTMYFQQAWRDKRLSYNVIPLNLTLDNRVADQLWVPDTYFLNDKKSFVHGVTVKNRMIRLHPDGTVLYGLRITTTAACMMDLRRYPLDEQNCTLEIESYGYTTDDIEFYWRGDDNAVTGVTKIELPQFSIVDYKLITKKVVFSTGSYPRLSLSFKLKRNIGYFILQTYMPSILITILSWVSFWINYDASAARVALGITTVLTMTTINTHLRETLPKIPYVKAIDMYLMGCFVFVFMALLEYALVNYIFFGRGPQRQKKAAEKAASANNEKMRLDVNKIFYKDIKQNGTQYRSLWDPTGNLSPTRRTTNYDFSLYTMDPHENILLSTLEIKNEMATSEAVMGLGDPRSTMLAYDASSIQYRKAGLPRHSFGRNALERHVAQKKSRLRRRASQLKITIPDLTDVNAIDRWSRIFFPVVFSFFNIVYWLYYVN
T1 sequence (P18507 40-475): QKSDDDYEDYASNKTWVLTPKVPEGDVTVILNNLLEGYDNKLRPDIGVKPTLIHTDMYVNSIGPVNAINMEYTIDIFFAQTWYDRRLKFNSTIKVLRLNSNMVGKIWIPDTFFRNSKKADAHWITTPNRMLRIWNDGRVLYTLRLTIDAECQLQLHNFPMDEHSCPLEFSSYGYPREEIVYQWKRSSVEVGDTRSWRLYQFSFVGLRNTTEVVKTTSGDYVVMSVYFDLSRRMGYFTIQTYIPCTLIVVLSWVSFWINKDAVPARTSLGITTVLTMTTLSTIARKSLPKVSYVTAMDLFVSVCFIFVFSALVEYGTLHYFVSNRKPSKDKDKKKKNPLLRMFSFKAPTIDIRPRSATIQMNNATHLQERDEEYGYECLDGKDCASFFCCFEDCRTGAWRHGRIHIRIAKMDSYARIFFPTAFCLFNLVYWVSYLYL
Method: Chinese hamster ovary (CHO)-K1 cells transfected stably with human GABAA receptor α1, β2 and γ2 subunit cDNAs were used. The cells were plated onto collagen-coated 35-mm cell culture dishes at low density for 1–7 days before recording. Test solutions were prepared in the extracellular solution on the day the patch-clamp assay was performed. The intracellular solution consisted of 22 mM KCl, 110 mM K-aspartate, 8 mM NaCl, 1 mM MgCl2, 1 mM CaCl2, 10 mM ethylene glycol tetraacetic acid, 5 mM Na2ATP, 10 mM hydroxyethyl piperazineethanesulfonic acid (HEPES) (adjusted to pH 7.2 using KOH), while the extracellular solution contained 145 mM NaCl, 4 mM KCl, 2 mM CaCl2, 2 mM MgCl2, 10 mM HEPES (adjusted to pH 7.4 using NaOH). The assay was performed at room temperature. Cells were maintained at −70 mV and the potentiation effect was assessed by co-application of the test compound with EC20 of muscimol after the cell was pre-incubated with the test compound for 45 s. GABA EC20 measured individually in each cell. The amplitude of the Cl− current in response to muscimol and/or test compound was determined. The response to the co-application of the test compound and muscimol was normalized to the control muscimol response as a percentage of the control. A potentiation effect was indicated by a value >100% of the control response. EC50 values were calculated using the four parameter logistic equation, where E was the amplitude of the muscimol-induced current in the presence of the anesthetic at concentration [A], EMAX was the amplitude of the response in the presence of a maximally effective concentration of the anesthetic, EC50 was the concentration of anesthetic producing a half-maximal enhancement of the muscimol-induced response and nH was the Hill coefficient. [drawing 1]

rat [3] = format: in vivo; conditions: for Duration of LORR / Time to walk / time to behavioral recovery: 2× HD50 dose, mean ± SD; for HD50: IV, 95% confidence limits
Method: (§1) All tests were performed during the light period. Groups of mice, rats and rabbits were injected intravenously (lateral tail vein) over 10 s with each dose of test compound, placed in separate boxes to reduce external stimuli and assessed for the loss of righting reflex. Dosing was performed using mg/kg scheme. A set of dose levels was chosen, and depending on whether the loss of righting reflex was observed, extra doses were introduced to provide data for the loss of righting reflex over a narrow dose range to allow potency calculations. From the percentage of mice, rats and rabbits in each group showing loss of righting reflex for ≥30 s, a probit analysis (SAS Institute) was performed to obtain an HD50 for each compound with 95% confidence limits.
(§2) Immediately following the injection, the mice, rats and rabbits were tested for loss of righting reflex. […] Once a loss was observed, the interval between the loss of righting reflex and the return to righting reflex was recorded. The anesthetized animals recovered righting reflexes spontaneously. To compare the duration of LORR of each compound at equipotent doses, groups of mice, rats and rabbits were injected with each compound at 2× HD50 over 10 s.
(§3) Time to walk was the time required after righting before mice and rabbits walked from the center to the periphery of a 30-cm diameter dise.
(§4) The rotarod test was conducted to evaluate the recovery to the motor coordination. Before the LORR test, mice were trained for 2 consecutive days. Trained mice could maintain their balance on rod for more than 2 mins. After the mice could walk from the center to the periphery of a 30-cm diameter dise, they were put on the rotarod. Mice were classified as behavioral recovery when, on being placed on the rod, they could maintain their balance for 20 s. The time to behavioral recovery was the time required after mice walked from the centre to the periphery of a 30-cm diameter disc before they could maintain their balance on rod for 20 s.

rat [4] = assay: Therapeutic index (LD50/HD50) in rat; format: in vivo
Method: (§5) The LD50 was determined in mice, rats, and rabbits and the TI was calculated as LD50/HD50.

[5] = Octanol:water partition coefficient; format: physicochemical; conditions: water buffered with 10 mm Tris (pH 7.4)
Method: One mg of each hypnotic was added to 10 ml of water buffered with 10 mm Tris (pH 7.4) and 1 ml of octanol. The mixture was stirred overnight and then centrifuged to fully separate the organic and aqueous phases. The relative hypnotic concentration in each phase (i.e., the partition coefficient) was determined by high-performance liquid chromatography as described for blood.

rabbits [6] = assay: Hypnotic potency and recovery after IV bolus in rabbits; format: in vivo, rabbit; conditions: for Duration of LORR / Time to walk: 2× HD50 dose, mean ± SD; for HD50: IV, 95% confidence limits
Method: All tests were performed during the light period. Groups of mice, rats and rabbits were injected intravenously (lateral tail vein) over 10 s with each dose of test compound, placed in separate boxes to reduce external stimuli and assessed for the loss of righting reflex. Dosing was performed using mg/kg scheme. A set of dose levels was chosen, and depending on whether the loss of righting reflex was observed, extra doses were introduced to provide data for the loss of righting reflex over a narrow dose range to allow potency calculations.
Immediately following the injection, the mice, rats and rabbits were tested for loss of righting reflex. […] Once a loss was observed, the interval between the loss of righting reflex and the return to righting reflex was recorded. […] To compare the duration of LORR of each compound at equipotent doses, groups of mice, rats and rabbits were injected with each compound at 2× HD50 over 10 s.
as §3

rabbits [7] = assay: Therapeutic index (LD50/HD50) in rabbits; format: in vivo, rabbit
Method: as §5

GABAA receptor = assay: GABAA radioligand binding assay ([3H]EBOB); conditions: 50 µM compound, 0.5 nM [3H]EBOB, rat frontoparietal cortex
Method: All the new compounds were dissolved in 5% DMSO.
Specific binding was determined in the presence of compounds.
Membrane suspensions were thawed and centrifuged in incubation buffer at 10,000×g for 10 min and washed by a similar centrifugation. For displacement studies, membrane suspensions (5 mg original wet wt./ml) were incubated with 0.5 nM [^3H]EBOB ([…], Perkin Elmer Life Sciences, Boston, MA, USA) in the absence or presence of 50 µM of new compounds or reference drug for 2 h at 25°C. Nonspecific binding was determined in the presence of 10 µM Bicuculline. Bicuculline and picrotoxin were frequently used to determine the nonspecific binding when [3H]EBOB as radioligand [17]. Triplicate 1 ml samples were filtered on Whatman GF/B filters under vacuum with a Brandel Harvester and washed with 3×3 ml ice-cold buffer.

mice [8] = assay: animal or person; format: in vivo; conditions: mice; for ED50: Mus musculus, IV over 10 s, 95% confidence limits, read-out: HD50 (the source's name); for Time to walk: 2× HD50; for time to behavioral recovery: 2× HD50, rotarod; for Duration of LORR: IV 2× HD50, mean ± SD (n = 10); for Onset time: IV, mean ± SD (n = 10)
Method: as §1, §2, §3, §4

in vivo = conditions: mouse, in vivo; mice, 95% confidence limits
Method: as §5

mice [9] = assay: in vivo; conditions: LD50/HD50
Method: as §5

[10] = molecular target: T1, human GABAA receptor α1, β2 and γ2 (CHO-K1 cells); design: method as in PMID 22531340; conditions: GABAA receptor electrophysiology; cited from earlier work
[11] = In vitro metabolic half-life in rabbit whole blood; format: in vitro ADME; conditions: male, New Zealand White rabbit (n = 3), 37°C, read-out: Mean t1/2 Value
Method: (§6) Human whole blood stability experiments were conducted in whole blood from four human donors (male, 18–25 years). Single experiments were conducted with pooled blood from Sprague-Dawley rats (male, 8 weeks, n = 3), New Zealand White rabbits (male, 8–10 weeks, n = 3), Beagle dogs (male, 2–3 years, n = 3) and Cynomolgus monkeys (male, 3–4 years, n = 3). All the blood samples were provided by Xuzhou Medical College. A 1.35-ml aliquot of blood was warmed at 37°C for 5 min and hypnotic (from a 40 mM stock in DMSO solution) was added to a final concentration of 200 µM. After the specified incubation time, a 150-µl sample was removed and the metabolic reaction was quenched using 150-µl acetonitrile. Zero time-point samples were prepared by adding 150-µl acetonitrile (using a 4 mM stock in DMSO) to 150-µl blood before addition of the hypnotic. The quenched samples were centrifuged, and the supernatant was separated and stored at −20°C until analyzed. Hypnotic concentrations in thawed samples were determined by high-performance liquid chromatography using a 3-µm phenyl 4.6×50-mm C-A-25, ACE column with the UV detector set at 240 nm. […] The lower limit of quantitation of this assay is 3 µM and the accuracy within 15% at 10 µM. The metabolic half-lives were quantified from the incubation time-dependent change in drug concentration.

[12] = In vitro metabolic half-life in dog whole blood; format: in vitro ADME, Beagle dog; conditions: male; whole blood, Beagle dog (n = 3), 37°C, 200 µM; read-out: Mean t1/2 Value
Method: Human whole blood stability experiments were conducted in whole blood from four human donors (male, 18–25 years). Single experiments were conducted with pooled blood from Sprague-Dawley rats (male, 8 weeks, n = 3), New Zealand White rabbits (male, 8–10 weeks, n = 3), Beagle dogs (male, 2–3 years, n = 3) and Cynomolgus monkeys (male, 3–4 years, n = 3). All the blood samples were provided by Xuzhou Medical College. A 1.35-ml aliquot of blood was warmed at 37°C for 5 min and hypnotic (from a 40 mM stock in DMSO solution) was added to a final concentration of 200 µM. After the specified incubation time, a 150-µl sample was removed and the metabolic reaction was quenched using 150-µl acetonitrile. Zero time-point samples were prepared by adding 150-µl acetonitrile (using a 4 mM stock in DMSO) to 150-µl blood before addition of the hypnotic. The quenched samples were centrifuged, and the supernatant was separated and stored at −20°C until analyzed. Hypnotic concentrations in thawed samples were determined by high-performance liquid chromatography using a 3-µm phenyl 4.6×50-mm C-A-25, ACE column with the UV detector set at 240 nm. A linear gradient 20–45% acetonitrile in water with 0.05% trifluoroacetic acid was run for more than 20 min at a flow rate of 1 ml/min. The lower limit of quantitation of this assay is 3 µM and the accuracy within 15% at 10 µM. The metabolic half-lives were quantified from the incubation time-dependent change in drug concentration.

[13] = In vitro metabolic half-life in human whole blood; format: in vitro ADME; conditions: male, Human (n = 4), 37°C, read-out: Mean t1/2 Value
Method: as §6

[14] = In vitro metabolic half-life in rat whole blood; format: in vitro ADME; conditions: male, Sprague-Dawley Rat (n = 3), 37°C, read-out: Mean t1/2 Value
Method: as §6

[15] = In vitro metabolic half-life in monkey whole blood; format: in vitro ADME; conditions: male, Cynomolgus monkey (n = 3), 37°C, read-out: Mean t1/2 Value
Method: as §6

Row | Structure (SMILES) | time to walk after infusion (rabbits [1]) | duration of LORR after cessation of infusion (rabbits [1]) | Duration of LORR (rat [3]) | Time to walk (rat [3]) | time to behavioral recovery (rat [3]) | HD50 (rat [3]) | TI (rat [4]) | Octanol:Water Partition (Coefficient ± SD) [5] | Duration of LORR (rabbits [6]) | Time to walk (rabbits [6]) | HD50 (rabbits [6]) | TI (rabbits [7]) | GABAA binding (50 µmol) (Mean ± SD), percentage of inhibition (GABAA receptor) | ED50 (mice [8]) | Time to walk (mice [8]) | time to behavioral recovery (mice [8]) | Duration of LORR (mice [8]) | Onset time (mice [8]) | LD50 (in vivo) | TI (mice [9]) | further results
1 | CCCOC(=O)Cc1ccc(OCC(=O)N(CC)CC)c(OC)c1 [Propanidid] | 70.2 ± 14.9 s | 246.6 ± 65.7 s | 93.3 ± 16.1 s | 58.7 ± 18.8 s | 79.9 ± 34.6 s | 8.4 (7.8∼10.4) mg/kg | 9.6 | 394±40 | 265.4 ± 44.2 s | 124.5 ± 24.8 s | 5.1 (4.7∼5.7) mg/kg | 14.7 | 70.2±5.8% | 20.9 mg/kg | 56.3 ± 23.5 s | 83.9 ± 17.1 s | 89.6 ± 18.2 s | 6.7 ± 0.5 s | 119 mg/kg | 5.6 | EC50 [2]: 25.2 µM
2 | CCCOC(=O)Cc1ccc(OCC(=O)N(CC)CC)c(OCC)c1 [AZD3043, reference compound] | 46.3 ± 11.2 s | 135.6 ± 66.7 s | 74.2 ± 10.5 s | 38.4 ± 9.6 s | 56.9 ± 12.5 s | 8.2 (7.7∼9.8) mg/kg | 10.1 | 466±54 | 221.6 ± 38.8 s | 89.6 ± 7.6 s | 4.8 (4.6∼5.6) mg/kg | 15.6 | 83.2±7.4% | 17.6 mg/kg | 36.7 ± 6.4 s | 65.5 ± 14.1 s | 63.8 ± 8.5 s | 5.6 ± 1.2 s | 98.4 mg/kg | 6.0 | EC50 [10]: 36 µM; half-life at 200 µM [11]: 14.8 ± 3.3 min; half-life at 200 µM [12]: > 60 min; half-life at 200 µM [13]: 28.6 ± 6.2 min; half-life at 200 µM [14]: 0.6 ± 0.1 min; half-life at 200 µM [15]: 56.7 ± 11.9 min
